Experimental data from US4847302A, “Use of certain compounds in livestock food as growth promotants for better feed utilization and improved carcass composition” (Merck & Co., Inc., priority 1988, dated 1989).
Like-named read-outs stand apart in the source and are kept apart here.

Assays:
[1] = test system: Isolated Chicken Hepatocytes; assay: Inhibition of lipogenesis (14C acetate incorporation) in isolated chicken hepatocytes; type: cell-based; conditions: Gallus gallus, Hepatocyte, 2 h
Procedure: Determination of anti-lipogenic activity in hepatocytes
Hepatocytes were isolated from chicken liver using the procedure for adipocytes and incubated for 2 hours at 37° C. in the presence of ^14 C acetate and test compounds. […] Isoproterenol, at the same concentrations, was used as a positive control. After incubation, 8 ml Doles reagent (isopropanol:hexane:H2 SO4, 40:10:1) was added and incubation vials were shaken at room temperature for 30 minutes. Vial contents were poured into 50 ml screw-cap tubes. Vials were then rinsed with 6 ml hexane which was poured into the appropriate 50 ml tube. Tubes were shaken by hand, 10 ml H2 O was added, and tubes were shaken again. After phase separation, 2 ml of the upper (hexane) phase was removed to scintillation vials. Hexane was evaporated by a gentle air flow and the remaining lipids were resuspended in 10 ml Scinti Verse II. ^14 C was counted in a Packard liquid scintillation counter. Data are reported as CPM of ^14 C acetate incorporated into total lipids.

[2] = test system: Isolated Swine Adipocytes; assay: Stimulation of lipolysis (glycerol production) in isolated swine adipocytes; type: cell-based; conditions: for activation at 0.01 µM / activation at 0.05 µM / activation at 0.25 µM: Sus scrofa, Adipocyte, 2 h
Procedure: (§1) Fat was collected from freshly killed animals as follows: epididymal and perirenal fat from 150 to 200 g male rates; perirenal fat from 20 to 25 kg whether lambs, and perirenal and omental fat from 35 to 50 kg gilts. Immediately after collection, fat was placed in a siliconized beaker (all glassware was siliconized) containing Krebs-Ringer bicarbonate solution (KRB; pH 7.4) at 37° C. Fat was transferred to a clean beaker and finely chopped with scissors. Chopped fat was then used as such (whole adipose preparation) or treated with collagenase (isolated adipocytes).
(§2) Chopped fat was placed in a shaker containing 70 ml cell dispersion medium (CDM; 5 mM glucose, 0.1% collagenase, 4% bovine serum albumin (BSA), in KRB) and incubated at 37° C. for 1 hour with gentle shaking. Fat was then filtered to remove clumps and washed 4 times with washing medium (WM; 2.5 mM glucose, 1% BSA, in KRB) and 1 time with final suspension medium (FSM; 2.5 mM glucose, 2% essentially fatty acid free BSA, in KRB). Isolated adipocytes were then resuspended in the required amount of FSM (1 ml/flask, 3 flasks/treatment).
(§3) Whole adipose tissue from the rat (0.3 ml) or isolated adipocytes from sheep or swine (1 ml) were placed in plastic scintillation vials containing FSM (1.7 or 1 ml, respectively) and test compounds, and incubated at 37° C. for 2 hours. […] Isoproterenol, at the same concentrations, was used as a positive control. After incubation, media was removed and assayed for glycerol by a fluorometric modification of the method of Wieland (1974. Glycerol UV-method. pp. 1404. In: Bergmeyer (Ed.) Methods of Enzymatic Analysis. Verlag Chemie Weinham, Academic Press, New York).

[3] = test system: Isolated Ovine Adipocytes; assay: Stimulation of lipolysis (glycerol production) in isolated ovine adipocytes; type: cell-based, sheep
Procedure: as §1, §2, §3

[4] = test system: Rat Adipose Tissue; assay: Stimulation of lipolysis (glycerol production) in chopped rat adipose tissue; type: cell-based; conditions: Rattus norvegicus, 2 h
Procedure: as §1
as §3, with “York). […]” for “York).”

[5] = In vivo testing in rats: growth, feed conversion and carcass composition; set-up: species or system rat (male Charles River CD); conditions: in diet; for Gain / Feed Intake / Weight / Carcass Composition % of Change over Control, Fat / Carcass Composition % of Change over Control, Protein: dose equivalent to 20 ppm clenbuterol (clenbuterol: 10)
Description: Eighty intact, male Charles River CD rats, 75-90 g, were housed and maintained on rat chow and water ad libitum. After four days acclimation ten rats per group were randomized by weight to treatment and pen. Compounds to be tested were premixed and added to ground rat chow using doses equivalent to 20 ppm of clenbuterol on a molecular weight basis. It had previously been determined 10 ppm of clenbuterol was the minimum dose needed to give maximum improvements in gain and feed conversion. Therefore, the results of any compound tested should cause responses similar to clenbuterol if the compound has half or more the activity of clenbuterol.

[6] = Growth, feed conversion and carcass composition of broilers raised in floor pens for 7 weeks; type: in vivo; conditions: 0.5 ppm in diet
Procedure: Compound V (bitolterol) was compared to clenbuterol for effects on growth, feed conversion and carcass composition of broilers raised in floor pens for 7 weeks. […] Bitolterol at the highest dose improved rate of gain 2.6% (P 0.01), feed conversion 3.8% (P 0.05) and carcass protein 4.9% (P 0.10).
Clenbuterol at 0.5 ppm in the diet was administered for 7 weeks to one group and only during the last 4 weeks to another group. […] Clenbuterol given for 7 weeks improved feed conversion 3.5% (P 0.05) and appeared to improve (not significant) rate of gain 0.4%, carcass weight 0.7% and carcass protein 4.0% and to decrease (not significant) carcass fat 7.1%.

[7] = Growth promoting activity / feed utilization in livestock (general statements); type: in vivo; conditions: poultry, sheep or swine
[8] = Baker et al., Fed. Proc. 42; some species of food livestock; cited from earlier work
[9] = read-out: percent change compared to control, 14C acetate incorporation in fatty acids, Test 1
[10] = read-out: percent change compared to control, 14C acetate incorporation in fatty acids, Test 2
[11] = read-out: percent increase compared to control, glycerol production, Test 1
[12] = read-out: percent increase compared to control, glycerol production, Test 2

In the case of `CC(C)(C)NCC(O)c1cc(Cl)c(N)c(Cl)c1` (stereo not shown) [Clenbuterol, clenbuterol], the inhibition at 0.01 µM [1, 9] is reported as 4.2%, the inhibition at 0.05 µM [1, 9] is reported as 16.4% and the inhibition at 0.25 µM [1, 9] is reported as 24.6%. It also gave an inhibition at 0.01 µM [1, 10] of 8%, an inhibition at 0.05 µM [1, 10] of 18% and an inhibition at 0.25 µM [1, 10] of 16%. The activation at 0.01 µM [2, 11] was 27%, the activation at 0.05 µM [2, 11] was -20% and the activation at 0.25 µM [2, 11] was -27%. The activation at 0.01 µM [2, 12] was 0%, the activation at 0.05 µM [2, 12] was -20% and the activation at 0.25 µM [2, 12] was 4%. The “lipolytic activity (in words)” value ([2]; isolated swine adipocytes) was “lack of activity”, the activation at 0.05 µM ([3]; Ovis aries, Adipocyte, 2 h, read-out: percent increase compared to control, glycerol production, Test 1) was 240% and the activation at 0.25 µM ([3]; Ovis aries, Adipocyte, 2 h, read-out: percent increase compared to control, glycerol production, Test 1, 0.25 μM) was 325%. For the same compound, the activation at 0.01 µM ([3]; Ovis aries, Adipocyte, 2 h, read-out: percent increase compared to control, glycerol production, Test 2, 0.01 μM) was 186%, the activation at 0.05 µM ([3]; Ovis aries, Adipocyte, 2 h, read-out: percent increase compared to control, glycerol production, Test 2) was 857% and the “percent increase compared to control, glycerol production” value ([3]; Test 1, 0.01 μM) was “inactive”. The activation at 0.01 µM [4, 11] was 12%, the activation at 0.05 µM [4, 11] was 26% and the activation at 0.25 µM [4, 11] was 21%. It also gave an activation at 0.01 µM [4, 12] of 10%, an activation at 0.05 µM [4, 12] of 10% and an activation at 0.25 µM [4, 12] of 16%. For the same compound, the Gain ([5]; Test 1, control 7.3) was 7.8 g/day, the “Feed Intake” value ([5]; Test 1, control 18.6) was 19.2 g/day and the Weight ([5]; Test 1, control 191.8) was 198.6 g. For the same compound, the “Carcass Composition % of Change over Control, Fat” value ([5]; Test 1) was -11.3%, the “Carcass Composition % of Change over Control, Protein” value ([5]; Test 1) was 11.2% and the Gain ([5]; Test 2, control 7.5) was 8.2 g/day. The “Feed Intake” value ([5]; Test 2, control 19.3) was 19.9 g/day, the Weight ([5]; Test 2, control 202.3) was 216.9 g and the “Carcass Composition % of Change over Control, Fat” value ([5]; Test 2) was -11.9%. The “Carcass Composition % of Change over Control, Protein” value ([5]; Test 2) was 4.3%, the “minimum dose needed to give maximum improvements in gain and feed conversion” value ([5]; previously determined) was 10 ppm and the “feed conversion and carcass protein, 7 weeks versus 4 weeks of administration” value [6] was “slightly more effective”. The “improvement of feed conversion” value ([6]; 7 weeks, P 0.05) was 3.5%, the “decrease of carcass fat” value ([6]; 7 weeks, not significant) was 7.1% and the “improvement of carcass protein” value ([6]; 7 weeks, not significant) was 4.0%. For the same compound, the “improvement of carcass weight” value ([6]; 7 weeks, not significant) was 0.7%, the “improvement of rate of gain” value ([6]; 7 weeks, not significant) was 0.4% and the “activity compared with other compounds in poultry, sheep or swine” value [7] was “not as active as other compounds in poultry, sheep or swine”. The “enhancement of food utilization and change of carcass composition” value [8] was “functions in this way”.
